Laboratory results reported in ChEMBL document CHEMBL1150580, “Microsphaerones A and B, two novel gamma-pyrone derivatives from the sponge-derived fungus Microsphaeropsis sp” (J Nat Prod, 2002).
Calls of active or inactive are those of the source. The calls are words filed in the database; no cut-off is given here.

Assays:
Artemia salina = assay: Toxicity to Artemia salina; format: organism-based; conditions: in vivo
Spodoptera littoralis = assay: Insecticidal activity against Spodoptera littoralis larvae; format: functional, organism-based

Row | Compound | Activity (Artemia salina) | Activity (Spodoptera littoralis)
1 | C[C@@H](CC(=O)NC(=O)c1coc(/C=C/C=C/CCCCCCC(=O)O)cc1=O)C(=O)O [MICROSPHAERONE A] | Non-toxic | inactive
2 | NC(=O)c1coc(/C=C/C=C/CCCCCCC(=O)O)cc1=O [MICROSPHAERONE B] | Non-toxic | inactive
